Molecules are shown by their SMILES. Bounds are passed on as bounds.

One assay deals with colon PDX. As to the kind of experiment: Cell viability, colon PDX (panel statement). The following applies: text summary of Table 7; read-out: IC50, growth of colon PDX. It counts as cell-based. As to the method: PDX-derived cell cultures were obtained from tumors explanted from mice and isolated by mechanical and enzymatic dissociation. […] Cells were harvested and seeded in 96-wells plates at a density of 1.25 to 5×10^3 cells/well for cytotoxicity assays. Cells were incubated 48 h at 37° C. prior to addition of test molecules and vehicle (DMSO, 0.1%) at desired final concentrations. Cell viability was assessed before drugs' addition (To) and 5 days after test molecules addition by measuring ATP cell content using CellTiter-Glo® Luminescent Cell Viability Assay (Promega) according to the manufacturer's instructions. Luciferase activity was measured on a luminometer (PerkinElmer® EnVision™). Each concentration of compounds was tested in triplicate.
Viability was calculated as a percentage of ATP value compared to vehicle treated controls.
For PDX primary cell cultures, the tumour tissue was washed with PBS containing antibiotic-antimycotic and non-tumour tissue and necrotic tumour tissues were separated. The tumour tissue was transferred to a new dish and cut into 1˜2 mm^3 fragments, resuspended in RPMI-1640 medium and centrifuged at 1,200 rpm for 6 min at room temperature. The pelleted material was resuspended with 15 mL of Tumour Cell Digestion Solution and incubated at 37° C. for 1 hour with agitation. […]

In another assay the target is T1, ABL1-nonphosphorylated (Homo sapiens, UniProt P00519).
T1 construct: purchased Eurofins (KINOMEscan); host or cells: E. coli BL21-derived host (T7 phage) or HEK-293
T1 sequence (P00519 whole entry): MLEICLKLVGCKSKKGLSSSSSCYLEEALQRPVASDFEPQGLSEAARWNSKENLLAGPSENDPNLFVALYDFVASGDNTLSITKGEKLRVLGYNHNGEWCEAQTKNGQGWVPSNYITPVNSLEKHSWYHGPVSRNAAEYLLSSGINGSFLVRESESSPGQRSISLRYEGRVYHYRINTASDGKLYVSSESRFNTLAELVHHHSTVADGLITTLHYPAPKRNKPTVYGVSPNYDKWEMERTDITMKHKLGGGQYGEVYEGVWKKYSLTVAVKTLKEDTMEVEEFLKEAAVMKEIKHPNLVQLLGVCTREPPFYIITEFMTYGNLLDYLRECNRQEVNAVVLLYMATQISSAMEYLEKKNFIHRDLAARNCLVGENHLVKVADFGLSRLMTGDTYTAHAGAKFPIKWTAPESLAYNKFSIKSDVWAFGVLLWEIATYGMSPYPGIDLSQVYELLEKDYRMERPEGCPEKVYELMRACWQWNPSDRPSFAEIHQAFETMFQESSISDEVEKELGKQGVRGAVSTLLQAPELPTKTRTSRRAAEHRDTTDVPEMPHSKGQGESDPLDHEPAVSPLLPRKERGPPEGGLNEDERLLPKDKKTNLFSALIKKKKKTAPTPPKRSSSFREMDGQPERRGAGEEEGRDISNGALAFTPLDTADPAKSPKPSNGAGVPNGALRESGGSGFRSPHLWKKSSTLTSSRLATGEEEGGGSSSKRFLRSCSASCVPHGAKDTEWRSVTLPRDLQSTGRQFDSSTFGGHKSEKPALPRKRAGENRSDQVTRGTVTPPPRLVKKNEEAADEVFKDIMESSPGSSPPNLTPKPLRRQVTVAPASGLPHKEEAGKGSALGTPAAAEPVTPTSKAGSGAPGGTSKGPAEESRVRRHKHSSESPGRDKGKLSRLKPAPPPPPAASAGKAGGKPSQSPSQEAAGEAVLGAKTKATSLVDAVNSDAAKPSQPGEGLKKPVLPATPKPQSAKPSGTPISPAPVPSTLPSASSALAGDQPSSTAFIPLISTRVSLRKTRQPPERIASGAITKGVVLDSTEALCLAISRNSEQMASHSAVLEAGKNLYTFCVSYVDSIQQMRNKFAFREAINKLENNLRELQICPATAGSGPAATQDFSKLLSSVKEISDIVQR
As to the kind of experiment: KINOMEscan competition binding, ABL1-nonphosphorylated. As to the method:
Selected compounds were screened for kinase inhibition using the KINOMEscan™ assay (Eurofins) which is based on a competition binding assay that quantitatively measures the ability of a compound to compete with an immobilized, active-site directed ligand. The assay was performed by combining three components: DNA-tagged kinase; immobilized ligand; and the test compound. The ability of the test compound to compete with the immobilized ligand was measured via quantitative PCR of the DNA tag.
Kinase-tagged T7 phage strains were prepared in an E. coli host derived from the BL21 strain. E. coli were grown to log-phase and infected with T7 phage and incubated with shaking at 32° C. until lysis. The lysates were centrifuged and filtered to remove cell debris. The remaining kinases were produced in HEK-293 cells and subsequently tagged with DNA for qPCR detection. Streptavidin-coated magnetic beads were treated with biotinylated small molecule ligands for 30 minutes at room temperature to generate affinity resins for kinase assays. […] Kds were determined using an 11-point 3-fold compound dilution series with three DMSO control points. […] The kinase concentration in the eluates was measured by qPCR. […]
Binding constants (Kds) were calculated with a standard dose-response curve using the Hill equation: Response=Background+[Signal−Background/1+(Kd^Hill Slope/Dose^Hill Slope)] […]

What is called IC50 is the concentration needed to halve the response being measured. Broadly, the Kd is the free concentration of one partner at which half of the binding sites on the other are occupied at equilibrium, for simple one-to-one binding. Read a high Kd as lower affinity. Consider `COc1c(O)ccc2c(=O)c(O)c(-c3ccc(CCCC[P+](c4ccccc4)(c4ccccc4)c4ccccc4)cc3)oc12` [SND190, (4-(4-(3,7-Dihydroxy-8-methoxy-4-oxo-4H1-chromen-2-yl)phenyl)butyl)triphenylphosphonium bromide], for which the concentration for half-maximal inhibition (IC50) with colon PDX was < 20000 nM. Also, on ABL1-nonphosphorylated, binding was characterised by a dissociation constant (Kd) of 460 nM.

The record behind these values is patent US20240124503A1, “HETEROAROMATIC PHOSPHONIUM SALTS AND THEIR USE TREATING CANCER” (FLORATEK PHARMA S.A., priority 2021, published 2024).
